# Measurements from PMC7139549, “TLD1433 Photosensitizer Inhibits Conjunctival Melanoma Cells in Zebrafish Ectopic and Orthotopic Tumour Models” (Cancers, 2020).
# Tested on: eye melanoma cells
# Assay: SRB cell viability assay, eye melanoma cells
# Format: cell-based, Human
# Experimental: TLD1433 is known to generate reactive oxygen species (ROS) with high quantum efficacy in many cancer cell lines. However, there is no report of the in vitro toxicity of this compound in eye melanoma (UM) cell lines. We determined the cell viability of three conjunctival melanoma cell lines (CRMM1, CRMM2 and CM2005.1), and three uveal melanoma cell lines (OMM1, OMM2.5, MEL270) in the presence of TLD1433, both in the dark or under green light irradiation (21 mW/cm^2, 19 J/cm^2, 520 nm, 15 min), and compared this viability to epidermoid carcinoma A431 and cutaneous melanoma A375 cell lines under the same conditions. […] The phototoxicity index (PI), defined as the ratio of the dark EC50 to the light EC50, was also calculated and represents the amplification of TLD1433 activity with a light trigger. […]
# At day 0, cells were detached using 1mL of trypsin, resuspended in 4 mL of media and transferred to a 15 mL corning falcon tube. Cells were counted using trypan blue and BioRad® TC20™ automated cell counter (Figure 11). Dilutions of 6000 (CRMM1), 6000 (CRMM2), 8000 (CM2005.1), 6000 (OMM1), 6000 (OMM2.5), 6000 (MEL270) 8000 (A431), and 4000 (A375) cells/well were calculated from each cell suspension at a final volume of 6 mL using the following formula: Vc=(Vt×10C)/Lc where Vt = total volume of solution, C = number of cells per well/per 100 μL and Lc = live cells count (cells/mL). […]
smiles,measurement,setting,value
Cc1ccnc(-c2cc(C)ccn2)c1.Cc1ccnc(-c2cc(C)ccn2)c1.[Cl-].[Cl-].[Ru+2].c1csc(-c2ccc(-c3ccc(-c4nc5c6cccnc6c6ncccc6c5[nH]4)s3)s2)c1 [TLD1433],EC50,"dark, read-out: EC50 (dark toxicity)",~1 µM
same,EC50 upon light activation (in words),green light 19 J/cm^2,in the nanomolar regime
